These results are taken from US12195771B2, “Combination chemotherapy for the treatment of cancer” (WISCONSIN ALUMNI RESEARCH FOUNDATION, priority 2017, dated 2025).

Data set [1] concerns human lung cancer cells (A549). Put plainly: Assay of cell viability with a single drug (tetrazolium dye-based MTS assay), A549. As to conditions: single agent, 48 h, value ± SE, n = 3. The protocol: To test this hypothesis, we treated human lung cancer cells for 48 h with trametinib or with three other kinase inhibitors: PD 0332991 (which is a CDK4/CDK6 inhibitor), bosutinib (which is a Src family kinase inhibitor), or crizotinib (which is an ALK inhibitor) (Boschelli et al., 2001; Fry et al., 2004; Zou et al., 2007). We measured cell viability with a tetrazolium dye-based assay for metabolic activity. The ensuing EC50 values are listed in a Table 1 and in the table in FIG. 10.
(§1) Cells in complete growth medium were plated at 5,000 cells per well in a 96-well microplate, which was incubated for 24 h. […] After 48 h, the medium was removed, and cells were incubated for 2 h with CellTiter 96® MTS reagent from Promega. Absorbance was recorded on an M1000 fluorimeter from Tecan (Morrisville, NC) at 490 nm. Data were analyzed with Prism 5.0 software from GraphPad (La Jolla, CA). Values of EC50, which is the concentration of a drug that gives half-maximal cell viability, were calculated with the equation: […]
(§2) where y is cell viability, x is the concentration of drug, and h is the Hill coefficient. Data were plotted on a log scale with each data point being the mean of 3 biological replicates.

For data set [2], the system named is human A549 lung cancer cells. The data set can be described thus: Assay of cell viability with two drugs (kinase inhibitor + ptRNase), A549. In kind it is cell-based. As to conditions: for Synergism with ptRNase?: A549 cells, two-drug combination with ptRNase. The protocol:
We measured cell viability with a tetrazolium dye-based assay for metabolic activity.
We used the EC50 values obtained from single-drug treatment (Table 1) to design subsequent drug combination experiments. Two-drug combination experiments were performed using a 5×5 matrix to interrogate 25 concentration ratios per combination.
(§3) The EC50 values obtained from single-drug cell viability assays were used to design subsequent drug combination experiments. Two-drug combination experiments were performed by using a 5×5 matrix in 96-well plates to interrogate 25 dosing pairs. Cells in complete growth medium were plated at 5,000 cells per well in a 96-well microplate, which was incubated for 24 h at 37° C. […] After 48 h, cell viability was evaluated as described above.
(§4) The dose-effect curve for each drug was determined based on experimental observations and was compared to the effect afforded by the two-drug combination to derive a CI value. The CI values for all combinations were calculated using CalcuSyn 2.0 from Biosoft (Cambridge, UK). […] Each CI value was the mean of the results from 3 biological replicates.

The test system of data set [3] is H358 cells (KRAS G12C). The data set can be described thus: Assay of cell viability with two drugs (ARS-853 + ptRNase), H358. The class given is cell-based, human. The settings on record: 5×5 matrix, CI (FIG. 4C). On the procedure:
as §3, §4

Data set [4] has as its target G12C variant of KRAS (Homo sapiens, UniProt P01116, G12C). As to conditions: Patricelli et al., 2016, Lito et al.; cited from earlier work.
The subject of data set [5] is phosphorylation of MEK, ERK, RSK and RI in SK-MEL-28 cells. Put plainly: Immunoblotting and pull-down of biotinylated RI after kinase inhibitor treatment. The class given is cell-based, human. The settings on record: for phosphorylation of MEK / phosphorylation of ERK and RSK: SK-MEL-28, 24 h; for phosphorylation of MEK: bosutinib 5 μM, crizotinib 2 μM, PD 0332991 2 μM, selumetinib 10 nM, dabrafenib 10 nM, trametinib 1 nM; for phosphorylation of ERK and RSK: same inhibitor concentrations as FIG. 6; for phosphorylation of RI (α-pSer, α-pThr): biotinylated RI captured from SK-MEL-28 cells, 24 h inhibitor treatment. On the procedure: FIGS. 6A-6B are immunoblots showing that inhibition of the ERK pathway prevents the phosphorylation of RI in SK-MEL-28 cells. Cells transfected to produce biotinylated RI were treated with bosutinib (5 μM), crizotinib (2 μM), PD 0332991 (2 μM), selumetinib (10 nM), dabrafenib (10 nM), or trametinib (1 nM) for 24 h. (A) Treatment with inhibitors of non-ERK pathway kinases has no effect on the phosphorylation of MEK, ERK, or RSK in cell lysates. Treatment with dabrafenib reduces the phosphorylation of MEK (α-pMEK ½ lane) as well as that of ERK and RSK (α-pERK ½, and α-pRSK lanes). Treatment with selumetinib and trametinib reduces the phosphorylation of ERK and RSK. (B) Treatment with inhibitors of non-ERK pathway kinases has no effect on phosphorylation of biotinylated RI, which was captured by using streptavidin-coated magnetic beads. Inhibition of ERK-pathway kinases diminishes phosphorylation of RI (α-pThr, and α-pSer lanes).
The inventors further confirmed the apparent effect of kinase inhibitors on RI phosphorylation by immunoblotting. Biotinylated RI was isolated by using streptavidin-coated magnetic beads from SK-MEL-28 cells after transient transfection for 48 h. To detect phosphorylated species, we used α-pSer or α-pThr. […] These biochemical data provide direct evidence that kinases in the ERK pathway are indeed responsible for phosphorylating RI, in agreement with the observed synergism.
Cells grown in a 10-cm dish were lysed with 1 mL of M-PER™ Mammalian Protein Extraction Reagent (a mammalian protein extraction reagent that contains a mild, nondenaturing detergent) containing PIERCE™ Protease Inhibitor Tablets (tablets containing protease inhibitors AEBSF, aprotinin, bestatin, E-64, leupeptin, and pepstatin A), PIERCE™ Phosphatase Inhibitor Tablets (sodium fluoride, sodium orthovanadate, sodium pyrophosphate, and beta-glycerophosphate for broad-spectrum inhibition of phosphatase activity), and DTT (1 mM). Cell lysates were subjected to centrifugation for 10 min at 14,000 g to remove cell debris, and the total protein concentration in the supernatant was determined with a Bradford protein assay. Protein (˜30 μg) was separated by SDS-PAGE using a gel from Biorad (Hercules, CA), and the resulting gel was subjected to transfer to a PVDF membrane with an IBLOT® 2 (a dry transfer device that performs western blotting transfer without the need for liquid buffers) dry transfer system. The membrane was blocked for 1 h in a solution of BSA (5% w/v) in TBS-Tween (TBS-T), washed, and then incubated overnight at 4° C. with an antibody (1:500 dilution) in TBS-T containing BSA (5% w/v). After another wash with TBS-T, membranes were incubated with secondary antibody (1:3000 dilution), washed again, and then detected with an Amersham ECL Select Western Blotting Detection Reagent and by an ImageQuant™ LAS4000 instrument from GE Healthcare (Marlborough, MA).
For pull-down assays, after isolation of the total protein, samples were incubated overnight at 4° C. with Streptavidin […]® (magnetic particles coated with streptavidin) Paramagnetic Particles from Promega. The beads were washed (3×) with PBS containing 1 mM DTT. Samples were eluted with 50 μL of SDS gel-loading dye and processed further for immunoblotting.

Data set [6] concerns human melanoma cells (SK-MEL-28, A375, Malme-3M). The data set can be described thus: Assay of cell viability with two drugs, melanoma cell lines. The settings on record: across three melanoma cell lines (FIG. 5). In kind it is cell-based. The protocol: None of the agents were toxic to normal skin fibroblasts at the tested doses (FIG. 10).
as §3, §4

Data set [7] has as its system V600E/K variants of BRAF. The settings on record: Kefford et al., 2010; King et al., 2013; cited from earlier work.
Data set [8] relates to H358 cells (KRAS G12C). Put plainly: Assay of cell viability with a single drug (MTS assay), H358. In kind it is cell-based, human. On the procedure: as §1, §2

G12C variant of KRAS, sequence (P01116 1-188 isoform P01116-2 G12C): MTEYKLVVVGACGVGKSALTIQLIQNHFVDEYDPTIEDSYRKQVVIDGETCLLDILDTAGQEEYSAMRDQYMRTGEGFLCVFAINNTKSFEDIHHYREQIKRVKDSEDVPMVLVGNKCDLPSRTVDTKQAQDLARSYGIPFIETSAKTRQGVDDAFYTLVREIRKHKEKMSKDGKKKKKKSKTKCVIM

As to `C=CC(=O)N1CC(N2CCN(C(=O)CNc3cc(C4(C)CC4)c(Cl)cc3O)CC2)C1` [ARS-853], the EC50 in data set [1] came to 74 ± 8 µM. The “synergy with the ptRNase judged by combination index (CI)” value in data set [2] (A549, 5×5 concentration matrix, kinase inhibitor 1 h then ptRNase, 48 h) was “additive effect”. Besides, the “Synergism with ptRNase?” value in data set [2] is listed as “Yes”. Besides, the “effect of combination with the ptRNase” value in data set [3] is “enhanced the efficacy of both agents”. Moreover, the “cellular inhibitory activity against the G12C variant of KRAS” value in data set [4] is reported as “robust cellular inhibitory activity”.

In data set [1] (Homo sapiens), `COc1cc(Nc2c(C#N)cnc3cc(OCCCN4CCN(C)CC4)c(OC)cc23)c(Cl)cc1Cl` [Bosutinib] came in with a concentration for a half-maximal effect (EC50) of 0.73 ± 0.06 µM.

`C[C@@H](Oc1cc(-c2cnn(C3CCNCC3)c2)cnc1N)c1c(Cl)ccc(F)c1Cl` [Crizetinib] came in with an EC50 in data set [1] (Homo sapiens) of 0.11 ± 0.02 µM. In addition, in data set [5], the “phosphorylation of MEK” value is “insignificant effects”; the “phosphorylation of ERK and RSK” value was “insignificant effects”; the “phosphorylation of RI (α-pSer, α-pThr)” value is reported as “Strong bands for phosphorylated RI”.

As for `CC(C)(C)c1nc(-c2cccc(NS(=O)(=O)c3c(F)cccc3F)c2F)c(-c2ccnc(N)n2)s1` [Dabrafenib], the concentration giving a half-maximal response (EC50) in data set [1] (Homo sapiens) came to 40 ± 5 µM. Also, in data set [2], the “Synergism with ptRNase?” value is “Yes”. For the same molecule, in data set [6], the “effect of combination with trametinib (without ptRNase)” value is on record as “additive effect” and the “synergy of combination with the ptRNase” value is “strong synergy”. Besides, in data set [5], the “phosphorylation of MEK” value is given as “only a weak band of phosphorylated MEK”; the “phosphorylation of ERK and RSK” value is “no detectable phosphorylation”; the “phosphorylation of RI (α-pSer, α-pThr)” value is on record as “no detectable phosphorylation”. The “inhibitory activity against the V600E/K variants of BRAF” value in data set [7] is given as “robust inhibitory activity”.

`CC(=O)c1c(C)c2cnc(Nc3ccc(N4CCNCC4)cn3)nc2n(C2CCCC2)c1=O` [PD 0332991] returned an EC50 in data set [1] (Homo sapiens) of 0.24 ± 0.04 µM. For the same molecule, the “Synergism with ptRNase?” value in data set [2] is reported as “No”. Also, in data set [5], the “phosphorylation of MEK” value is “insignificant effects”; the “phosphorylation of ERK and RSK” value is listed as “insignificant effects”; the “phosphorylation of RI (α-pSer, α-pThr)” value is “Strong bands for phosphorylated RI”.

In the case of `Cn1cnc2c(F)c(Nc3ccc(Br)cc3Cl)c(C(=O)NOCCO)cc21` [Selumetinib], in data set [1] (Homo sapiens), the EC50 came out at 43 ± 5 µM.

Molecule `CC(=O)Nc1cccc(-n2c(=O)n(C3CC3)c(=O)c3c(Nc4ccc(I)cc4F)n(C)c(=O)c(C)c32)c1` [Trametinib] came in with a 50% effective concentration (EC50) in data set [1] (Homo sapiens) of 5.7 ± 0.6 µM.

B1: R4C/G38R/R39G/N67R/G89R/S90R/V118C RNase 1 (protein, UniProt P07998 29-156, looked up, variant R4C G38R R39G N67R G89R S90R V118C)
Ribonuclease pancreatic: KESCAKKFQRQHMDSDSSPSSSSTYCNQMMRRRNMTQRGCKPVNTFVHEPLVDVQNVCFQEKVTCKRGQGNCYKSNSSMHITDCRLTNRRRYPNCAYRTSPKERHIIVACEGSPYVPCHFDASVEDST
notes: gift from Quintessence Biosciences
Regarding B1, the EC50 was 62 ± 7 µM in data set [1] and 3.6 ± 0.6 µM in data set [8] (H358 cells (KRAS G12C), single agent, mean ± SEM, n = 3). The “cytotoxicity to H358 cells compared to A549 cells” value in data set [8] (H358 versus A549) stood at 20 fold.
